Results as given in patent US6846492B2, “Use of phenylethylamine derivatives for the antimicrobial treatment of surfaces” (Ciba Specialty Chemicals Corporation, priority 2000, dated 2005).
≈ marks a conversion by molar mass, not a printed value. Counter-ions that a name gives are not always drawn. Like-named read-outs stand apart in the source and are kept apart here.

Columns and labels:
[1] = test system: Epidermophyton floccosum DSM 10709; assay: MIC determination in microtiter plates, Epidermophyton floccosum; type: cell-based; settings: DSM10709, 120 h, read-out: MIC [ppm] Epidermophyton floccosum DSM 10709
Procedure: (§1) Determination of the Minimum Inhibitory Concentration (MIC Value) in Microtiter Plates
(§2) Casein/soybean flour peptone bouillon for the preparation of pre-cultures of the test bacteria and yeast.
(§3) Mycological slant agar for the pre-culture of moulds
(§4) The test substances are pre-dissolved in dimethyl sulfoxide (DMSO) and tested in a dilution series of 1:2.
(§5) Bacteria and yeast are cultured overnight in CASO bouillon, the mould is cultured overnight on mycological slant agar, and washed off with 10 ml of 0.85% sodium chloride solution (+0.1% TritonX-100).
(§6) All the test organisms are adjusted to an organism count of 1−5×10^6 CFU/ml using 0.85% sodium chloride solution.
(§7) The test substances are pre-pipetted into microtiter plates in an amount of 8 μl per well.
(§8) Pre-diluted organism suspensions are diluted 1:100 in CASO bouillon (bacteria and yeast) or Sabouraud 2% glucose bouillon (mould) and are added in an amount of 192 μl per well to the test substances.
(§9) The test batches are incubated for 48 hours at 37° C. (bacteria and yeast) or for 5 days at 28° C. (mould).
(§10) After incubation, the growth is evaluated by reference to the turbidity of the test batches (optical density) at 620 nm in a microplate reader.
(§11) One microtiter plate is used for each test organism and substance concentration. All the substances are tested in duplicate.

[2] = test system: Staphylococcus epidermidis ATCC 12228; assay: MIC determination in microtiter plates, Staphylococcus epidermidis; type: cell-based; settings: read-out: MIC [ppm] Staphylococcus epidermidis ATCC 12228
Procedure: as §1, §2, §3, §4, §5, §6, §7, §8, §9, §10, §11

[3] = test system: Enterococcus hirae ATCC 10541; assay: MIC determination in microtiter plates, Enterococcus hirae; type: cell-based; settings: read-out: MIC [ppm] Enterococcus hirae ATCC 10541
Procedure: as §1, §2, §3, §4, §5, §6, §7, §8, §9, §10, §11

[4] = test system: Staphylococcus aureus ATCC 9144; assay: MIC determination in microtiter plates, Staphylococcus aureus; type: cell-based; settings: read-out: MIC [ppm] Staphylococcus aureus ATCC 9144
Procedure: as §1, §2, §3, §4, §5, §6, §7, §8, §9, §10, §11

[5] = test system: Trichophyton rubrum DSM 4167; assay: MIC determination in microtiter plates, Trichophyton rubrum; type: cell-based; settings: DSM4167, 120 h, read-out: MIC [ppm] Trichophyton rubrum DSM 4167
Procedure: as §1, §2, §3, §4, §5, §6, §7, §8, §9, §10, §11

[6] = test system: Corynebacterium xerosis ATCC 373; assay: MIC determination in microtiter plates, Corynebacterium xerosis; type: cell-based; settings: read-out: MIC [ppm] Corynebacterium xerosis ATCC 373
Procedure: as §1, §2, §3, §4, §5, §6, §7, §8, §9, §10, §11

[7] = test system: Porphyromonas gingivalis DSM 20709; assay: MIC determination in microtiter plates, Porphyromonas gingivalis; type: cell-based; settings: read-out: MIC [ppm] Porphyromonas gingivalis DSM 20709
Procedure: as §1, §2, §3, §4, §5, §6, §7, §8, §9, §10, §11

[8] = test system: Aspergillus niger ATCC 6275 (= AN); assay: MIC determination in microtiter plates, Aspergillus niger; type: cell-based; settings: ATCC6275, 120 h, Table 2c, 5 days at 28° C., read-out: MIC [ppm] Aspergillus niger ATCC 6275
Procedure: as §1, §2, §3, §4, §5, §6, §7, §8, §9, §10, §11

[9] = test system: Candida albicans ATCC 10231 (= CA); assay: MIC determination in microtiter plates, Candida albicans; type: cell-based; settings: read-out: MIC [ppm] Candida albicans ATC 10231
Procedure: as §1, §2, §3, §4, §5, §6, §7, §8, §9, §10, §11

[10] = test system: Staphylococcus hominis DMS 20328 (= SH); assay: MIC determination in microtiter plates, Staphylococcus hominis; type: cell-based; settings: read-out: MIC [ppm] Staphylococcus hominis DSM 20328
Procedure: as §1, §2, §3, §4, §5, §6, §7, §8, §9, §10, §11

[11] = test system: Streptococcus mutans ATCC 25175; assay: MIC determination in microtiter plates, Streptococcus mutans; type: cell-based; settings: read-out: MIC [ppm] Streptococcus mutans ATCC 25175
Procedure: as §1, §2, §3, §4, §5, §6, §7, §8, §9, §10, §11

[12] = test system: Streptococcus sobrinus DSM 20742; assay: MIC determination in microtiter plates, Streptococcus sobrinus; type: cell-based; settings: read-out: MIC [ppm] Streptococcus sobrinus DSM 20742
Procedure: as §1, §2, §3, §4, §5, §6, §7, §8, §9, §10, §11

[13] = test system: Propionibacterium acnes ATCC11829; assay: MIC determination in microtiter plates, Propionibacterium acnes; type: cell-based; settings: Cutibacterium acnes, read-out: MIC [ppm] Propionibacterium acnes ATCC11829
Procedure: as §1, §2, §3, §4, §5, §6, §7, §8, §9, §10, §11

[14] = test system: Actinomyces viscosum DSM 43329; assay: MIC determination in microtiter plates, Actinomyces viscosum; type: cell-based; settings: read-out: MIC [ppm] Actinomyces viscosum DSM 43329
Procedure: as §1, §2, §3, §4, §5, §6, §7, §8, §9, §10, §11

[15] = test system: Escherichia coli NCTC 8196 (= EC); assay: MIC determination in microtiter plates, Escherichia coli; type: cell-based; settings: NCTC8196, Table 2c, 48 hours at 37° C., read-out: MIC [ppm] Escherichia coli NCTC 8196
Procedure: as §1, §2, §3, §4, §5, §6, §7, §8, §9, §10, §11

[16] = test system: Trichophyton mentagrophytes ATCC 9533; assay: MIC determination in microtiter plates, Trichophyton mentagrophytes; type: cell-based; settings: ATCC9533, 120 h, Table 2c, 5 days at 28° C., read-out: MIC [ppm] Trichophyton mentagrophytes ATCC 9533
Procedure: as §1, §2, §3, §4, §5, §6, §7, §8, §9, §10, §11

[17] = test system: Selenomonas artemidis ATCC 43528; assay: MIC determination in microtiter plates, Selenomonas artemidis; type: cell-based; settings: Centipeda artemidis, ATCC43528; Table 2c; 48 hours at 37° C.; read-out: MIC [ppm] Selenomonas artemidis ATCC 43528
Procedure: as §1, §2, §3, §4, §5, §6, §7, §8, §9, §10, §11

[18] = ATCC12228, Table 2c, 48 hours at 37° C.
[19] = ATCC10541, Table 2c, 48 hours at 37° C.
[20] = ATCC9144, Table 2c, 48 hours at 37° C.
[21] = ATCC373, Table 2c, 48 hours at 37° C.
[22] = DSM20709, Table 2c, 48 hours at 37° C.
[23] = ATCC10231, Table 2c, 48 hours at 37° C.
[24] = DSM20328, Table 2c, 48 hours at 37° C.
[25] = ATCC25175, Table 2c, 48 hours at 37° C.
[26] = DSM20742, Table 2c, 48 hours at 37° C.

NCCc1cc(OCc2ccccc2)c(OCc2ccccc2)c(OCc2ccccc2)c1 (as salt: hydrochloride)
melting point: 130 °C

CCCCCCCCCCCCOc1ccc(CCN)cc1 [Compound 101, 1-Amino-2-(4-dodecyloxyphenyl)ethane]
MIC ([1]; Table 2c, 5 days at 28° C.): 3 µg/mL (≈ 9.82 µM) | MIC [2, 18]: 13 µg/mL (≈ 42.6 µM) | MIC [3, 19]: 50 µg/mL (≈ 164 µM) | MIC [4, 20]: 13 µg/mL (≈ 42.6 µM) | MIC ([5]; Table 2c, 5 days at 28° C.): 13 µg/mL (≈ 42.6 µM) | MIC [6, 21]: 6 µg/mL (≈ 19.6 µM) | MIC [7, 22]: 25 µg/mL (≈ 81.8 µM) | MIC [8]: 1 µg/mL (≈ 3.27 µM) | MIC [9, 23]: 50 µg/mL (≈ 164 µM) | MIC [10, 24]: 8 µg/mL (≈ 26.2 µM) | MIC [11, 25]: 6 µg/mL (≈ 19.6 µM) | MIC [12, 26]: 13 µg/mL (≈ 42.6 µM)

CCCCCCCCCCCCOc1ccc(CCN)cc1OC [Compound 100, 1-Amino-2-(4-dodecyloxy-3-methoxyphenyl)ethane]
MIC ([1]; Table 2c, 5 days at 28° C.): 3 µg/mL (≈ 8.94 µM) | MIC [2, 18]: 13 µg/mL (≈ 38.7 µM) | MIC ([13]; ATCC11829, Table 2c, 48 hours at 37° C.): 50 µg/mL (≈ 149 µM) | MIC [3, 19]: 25 µg/mL (≈ 74.5 µM) | MIC [4, 20]: 25 µg/mL (≈ 74.5 µM) | MIC [6, 21]: 6 µg/mL (≈ 17.9 µM) | MIC [7, 22]: 25 µg/mL (≈ 74.5 µM) | MIC ([14]; DSM43329, Table 2c, 48 hours at 37° C.): 25 µg/mL (≈ 74.5 µM) | MIC [8]: 2 µg/mL (≈ 5.96 µM) | MIC [9, 23]: 2 µg/mL (≈ 5.96 µM) | MIC [10, 24]: 2 µg/mL (≈ 5.96 µM) | MIC [11, 25]: 6 µg/mL (≈ 17.9 µM) | MIC [12, 26]: 6 µg/mL (≈ 17.9 µM)

CCCCCCOc1ccc(CCN)cc1OCCCCCC [Compound 102, 1-Amino-2-(3,4-dihexyloxyphenyl)ethane]
MIC [1]: 6 µg/mL (≈ 18.7 µM) | MIC [15]: 4 µg/mL (≈ 12.4 µM) | MIC ([2]; ATCC12228, 48 h): 6 µg/mL (≈ 18.7 µM) | MIC ([13]; ATCC11829, 48 h): 13 µg/mL (≈ 40.4 µM) | MIC ([3]; ATCC10541, 48 h): 13 µg/mL (≈ 40.4 µM) | MIC [16]: 25 µg/mL (≈ 77.8 µM) | MIC ([4]; ATCC9144, 48 h): 13 µg/mL (≈ 40.4 µM) | MIC [5]: 25 µg/mL (≈ 77.8 µM) | MIC ([6]; ATCC373, 48 h): 6 µg/mL (≈ 18.7 µM) | MIC ([7]; DSM20709, 48 h): 2 µg/mL (≈ 6.22 µM) | MIC ([14]; DSM43329, 48 h): 13 µg/mL (≈ 40.4 µM) | MIC ([9]; ATCC10231, 48 h): 4 µg/mL (≈ 12.4 µM) | MIC ([10]; DSM20328, 48 h): 4 µg/mL (≈ 12.4 µM) | MIC [17]: 25 µg/mL (≈ 77.8 µM) | MIC ([11]; ATCC25175, 48 h): 3 µg/mL (≈ 9.33 µM) | MIC ([12]; DSM20742, 48 h): 6 µg/mL (≈ 18.7 µM)
